Source: patent publication US5897874A, “Expulsion of material from a delivery device” (R. P. Scherer Corporation, priority 1993, dated 1999)
Values joined by “and” are separate entries in the source; they are usually repeats but may differ in a detail not shown here. Equal entries are not always repeated.

Assay: Drug release/delivery (pulse) time of capsule in stirred purified water at 37° C., spectrophotometric
Assay type: physicochemical
Description: A coated gelatin capsule of the type shown in FIG. 1 was filled with hydrogel powder prepared as in Example 1 of particle size 425 to 710 microns, and metoclopramide drug included as a separate layer. The hydrogel powder was compacted leaving a 4.5 mm space between the top of the hydrogel layer 10 and the mouth of the body 6. The metoclopramide was placed on top and the body was sealed with a hydrogel plug. […] The nominal delivery time was three hours.
In order to assess the delivery time to release of the drug, each capsule was placed in a liter of purified water at 37° C. stirred with a paddle at 50 rpm. The presence of drug in the water was monitored spectrophotometrically.
The procedure was repeated with a capsule having a hydrogel plug designed to provide a nominal delivery time of five hours. […] The "space" represents the space between the top of the hydrogel layer and the mouth of the body after inclusion of the drug. The space allows insertion of the plug to its correct depth without interference from the hydrogel powder fill. In this case the hydrogel plug was recessed 0.5 mm below the upper end of the neck of the capsule body.
Drug release was monitored spectrophotometrically at 226 nm.

Delivery Time (individual capsules 1 to 6, Example 2, hydrogel powder excipient, nominal delivery time three hours, 37° C., paddle 50 rpm) | mean delivery time (six capsules, Example 2, standard deviation 0.10, nominal three hours, hydrogel powder excipient) [h] | mean pulse time (Example 4, standard deviation of 0.1, nominal three hour pulse time, shorter plug, hydrogel excipient) [h] | Compound
3.25 h and 3.00 h | 3.21 | – | CCN(CC)CCNC(=O)c1cc(Cl)c(N)cc1OC [metoclopramide]
– | – | 3.29 | salbutamol sulphate
